Entries after “also recorded” stand apart in the source; their conditions may differ.
Legend:
mouse RBC = experiment: Storage of leukoreduced mouse blood in CPDA-1 at 4° C.: hemolysis and intact RBC count; type: cell-based; settings: CPDA-1 buffer; for RBC viability / intact RBCs (hemocytometer): 13 days
Description: FIG. 1 illustrates OCR6043-mediated prolonging of the integrity of stored RBCs. Leuko reduced mouse blood was stored under FDA-approved storage conditions (CPDA-1 buffer at 4° C.) for up to 13 days, in either OCR6043, control compound (structurally similar to OCR6043, but nonfunctional as a AGE crosslink breaker), or without any additive.
This solution was stored at 4° C. according to FDA-approved conditions for 13 days. […] The steps to collect HOD blood from mice and the addition of the FDA-approved storage buffer CPDA are described in Hendrickson et al., Transfusion of fresh murine red blood cells reverses adverse effects of older stored red blood cells, Transfusion (2011) Vol. 12, pp. 2695-2702.
We also counted the intact RBCs using a hemocytometer after 13 days of storage as also depicted in FIG. 1.

[1] = Stability studies of NHC precursors under the PPD cleavage reaction conditions; type: physicochemical; settings: exposure to PPD, Method B conditions
Source text: Instead, 7 gave rise predominantly to an oxalamide derivative, which is believed to form via dimerization and oxidation of intermediate carbenes. […] Stability studies afforded additional insights.
In cleavage of PPD with ALT-711 (2), we detected several decomposition products of the catalyst that appear to be adducts between 2 and an acetyl group, the remainder of PPD following the release of benzoic acid. One adduct that has been isolated and characterized explains why the concentration of ALT-711 diminishes after cleaving PPD while the benzyl counterpart (4) behaves as a stable catalyst. Instead of liberating acetaldehyde and re-entering the catalytic cycle, oxidation of alcohol 13 to the corresponding methyl ketone followed by an aldol condensation with the phenyl ketone gives rise to a thiazolopyridinium derivative (see Supplementary Material for details).

circulating stored RBCs = experiment: Post-transfusion recovery of stored RBCs (flow cytometry); type: in vivo, mouse; settings: blood stored 14 days; 24 hours after transfusion; listed as OCR6043
Description: Leuko-reduced mouse blood was stored under typical storage conditions for up to 14 days, in either OCR6043, control compound, or without any treatment. FIG. 2A illustrates an analysis of glucose in the serum from the stored blood was evaluated using a glucose oxidase enzymatic assay. […] FIG. 2B illustrates the AGE precursor levels on RBCs were measured using a dicarbonyl-specific fluorophore that was developed in-house. The time dependent increase in the AGE precursor levels was dampened in the presence of OCR6043. FIG. 2C illustrates mouse blood that was stored for 14 days, was evaluated for its immunogenicity upon transfusion, by testing for IgGs against an alloantigen on the RBCs (HOD=HEL-OVA-Duffy).
Using the transfusion methodology described in Hendrickson et al., it was possible to identify the surviving circulating RBCs using flow cytometry.

[2] = Trapping of methylglyoxal under physiological conditions (PBS); type: biochemical; settings: 37° C., 24 hours, MGO at pathologically relevant concentration (4-6 μM)
Description: For trapping under physiological conditions (FIG. 5), 12.5 μl of 2 (40 mM stock) and 7.7 μl of MGO (6.5 mM stock) were added to PBS (4.98 ml) and kept stirred at 37° C. At stated times, 445 μl of the reaction mixture was taken, quenched with 1 M HCl (5 μl) and analyzed by LCMS after adding 50 μl of 3 mM 4-methoxybenzhydrol as an internal standard. Yield of ALT-MGO (20) was determined by peak integration (m/z=304) against a calibration curve.
Recognizing the reaction conditions employed above were non-physiological, we wanted to test if ALT-711 could efficiently trap methylglyoxal (MGO, 17) at a pathologically relevant concentration (4-6 μM). We obtained ALT-MOO adduct (20) in PBS with a 53% yield at 24 hours (FIG. 5B). […] The trapping of MGO by ALT-711 may be the mechanism for the observed effects.

## Cc1sc[n+](CC(=O)c2ccccc2)c1C.[Cl-] [Compound 2]
Mouse RBC; listed as ALT-711
  RBC viability / intact RBCs (hemocytometer): higher levels of intact RBCs
Mouse RBC; listed as OCR6043
  RBC viability / intact RBCs (hemocytometer): superior cell viability
Mouse RBC; up to 13 days, 12 mM
  Hemolysis of stored blood (supernatant appearance): unhemolyzed
[1]
  Stability of NHC precursor under the reaction conditions: disappear from solution
Circulating stored RBCs
  Cell survival of transfused stored RBCs versus untreated stored blood: two-fold increase; also recorded: twofold increase
[2]
  Yield of ALT-MGO adduct (20): 53%

Reference: patent publication US9622469B2, “Crosslink breakers for preservation of biological substances” (priority 2013, dated 2017)
